From patent publication US10106550B2, “Aza-phenalene-3-ketone derivative, preparation method thereof, and its application as PARP inhibitor” (SUZHOU KANGRUN PHARMACEUTICALS INC., priority 2015, dated 2018)
Where “and” joins values, the source holds several entries; their conditions need not be identical. Identical values can stand only once. Like-named read-outs stand apart in the source and are kept apart here.

How the values were obtained:
[1] = Preliminary pharmacokinetics study in SD rats (single intravenous injection or oral gavage, plasma LC-MS/MS); format: in vivo; conditions: for AUC(0-inf) / AUC(0-t) / clearance / half-life / Vd / bioavailability / Cmax / Tmax: male, Sprague-Dawley (SD), rat; for Vd: read-out: VdSS; for bioavailability: single oral gavage 10 mg/kg vs intravenous 5 mg/kg, read-out: F (oral bioavailability)
Method: 2. Preliminary Pharmacokinetics Study of Compounds A1, A3, A6 in SD Rats
Healthy SPF SD male rats: 18, weighing 180-220 g, purchased from Shanghai Si Lai Ke Lab Animal Co. Ltd.; animal license no. SOCK (Shanghai) 2013-00016.
Rats were divided into intravenous injection group and oral gavage administration group, and fast for 12-14 hours before experiments. Test compounds' concentration in venous blood was measured. Venous blood was collected by orbital, EDTAK2 anticoagulation. The blood samples were placed on ice, and centrifuged within 30 minutes to separate plasma (centrifugal condition: 5000 rpm/min, 10 min, room temperature). The samples were stored at −80° C. prior to analysis.
Rats in intravenous injection group received a single injection 5 mL/kg of the test compounds. Rats in oral gavage administration group received a single dose 10 mL/kg of the test compounds. Venous blood sample collection times were: before the injection of the test compound (0 hr); after the injection of the test compound: 15 min, 30 min, 1 h, 2 h, 4 h, 6 h, 8 h and 24 h; before the oral gavage administration of the test compound (0 hr) and after the oral gavage administration of the test compounds, 30 min, 1 h, 2 h, 4 h, 6 h, 8 h and 24 h.
Liquid phase conditions: column: Agilent Eclipse plus-C18 (4.6×150 mm, 5.0 μm), mobile phase: 0.1% aqueous formic acid (A)/0.1% formic acid in acetonitrile (B); gradient elution, flow rate: 1.00 mL/min (split v:v=1:1); injection volume: 10 μL.
MS conditions: using electrospray ionization (ESI) and the positive ion mode under multiple reaction monitoring (MRM).
Compounds A1, A3, and A6 were weighed precisely and added to MDSO to prepare 1.00 mg/mL stock solutions. After the stock solutions were diluted to prepare 10000, 5000, 2000, 1000, 500, 100, 50.0, 20.0 ng/mL standard working solutions. Quality control work concentrations include low (30 ng/mL), medium (500 ng/mL), and high (8000 ng/mL).
10 μL plasma sample was added 100 μL verapamil internal standard solution. The mixture was vortexed for 60 seconds and then centrifuged (12000 rpm, 3 min). 70 μL supernatant was transferred to a 96-well plate with equal volume of water in each well. LC-MS/MS analysis was then conducted, and the injection volume was 10 μL.
Data were processed by using WinNonlin 6.3 pharmacokinetic calculation software and non-compartment pharmacokinetic model to obtain major pharmacokinetic parameters.

[2] = target: PARP1 (Homo sapiens (Human), UniProt P09874); test: PARP1 inhibitory activity, Universal PARP colorimetric assay kit (Trevigen); format: biochemical; conditions: for IC50: PARP1
Excerpt: 1. Measuring PARP1 Inhibitory Activity
1.1 Materials and Methods
Universal PARP colorimetric assay kit (US Trevigen company)

[3] = in vivo, single intravenous injection, 5 mg/kg
[4] = in vivo, single oral gavage, 10 mg/kg
[5] = plasma, single oral gavage, 10 mg/kg
[6] = single intravenous injection, 5 mg/kg
[7] = plasma, single intravenous injection, 5 mg/kg

PARP1, sequence (P09874 whole entry): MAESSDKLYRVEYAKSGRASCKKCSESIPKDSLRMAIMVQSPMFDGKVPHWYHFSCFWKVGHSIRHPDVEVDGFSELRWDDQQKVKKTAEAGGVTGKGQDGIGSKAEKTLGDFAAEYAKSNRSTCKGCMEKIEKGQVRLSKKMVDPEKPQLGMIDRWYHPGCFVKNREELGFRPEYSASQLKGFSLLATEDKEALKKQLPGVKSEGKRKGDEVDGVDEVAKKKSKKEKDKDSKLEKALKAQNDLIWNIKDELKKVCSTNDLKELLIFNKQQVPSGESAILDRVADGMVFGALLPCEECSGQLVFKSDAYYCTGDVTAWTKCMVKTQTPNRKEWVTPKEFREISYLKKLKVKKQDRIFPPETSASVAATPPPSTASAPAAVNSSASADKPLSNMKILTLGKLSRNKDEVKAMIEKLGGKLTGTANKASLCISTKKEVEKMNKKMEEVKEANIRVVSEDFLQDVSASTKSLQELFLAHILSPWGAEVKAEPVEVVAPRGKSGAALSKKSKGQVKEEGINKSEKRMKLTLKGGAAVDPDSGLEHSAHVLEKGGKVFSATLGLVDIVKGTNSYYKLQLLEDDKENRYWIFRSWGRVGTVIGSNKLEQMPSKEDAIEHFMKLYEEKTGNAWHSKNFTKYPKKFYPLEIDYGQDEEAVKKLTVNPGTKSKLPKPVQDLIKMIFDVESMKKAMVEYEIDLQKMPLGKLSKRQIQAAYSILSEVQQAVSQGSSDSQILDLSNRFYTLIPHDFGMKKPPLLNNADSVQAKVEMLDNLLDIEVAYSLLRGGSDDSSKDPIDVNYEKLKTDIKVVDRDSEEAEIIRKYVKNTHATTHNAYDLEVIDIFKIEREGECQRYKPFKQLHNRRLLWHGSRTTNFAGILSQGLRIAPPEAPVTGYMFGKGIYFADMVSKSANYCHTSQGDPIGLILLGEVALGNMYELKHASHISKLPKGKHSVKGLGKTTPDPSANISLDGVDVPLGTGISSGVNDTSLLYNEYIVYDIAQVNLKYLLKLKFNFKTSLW

Row | SMILES | exposure levels (AUC0-4) [1] | Tmax [1, 5] [min] | AUMC0-inf [1, 6] [h · h · ng · mL^−1] | AUMC0-t [1, 6] [h · h · ng · mL^−1] | Kel [1, 6] [h⁻¹] | MRTIV [1, 6] [min] | AUMC0-inf ([1]; single oral gavage, 10 mg/kg) [h · h · ng · mL^−1] | AUMC0-t ([1]; single oral gavage, 10 mg/kg) [h · h · ng · mL^−1] | CL ([1]; single oral gavage, 10 mg/kg) [mL·min/kg] | Kel ([1]; single oral gavage, 10 mg/kg) [h⁻¹] | MRTPO ([1]; single oral gavage, 10 mg/kg) [min] | Vz ([1]; single oral gavage, 10 mg/kg) [L/kg] | IC50 [2] [nM] | other results
1 | Cl.O=c1[nH]nc2c3c(cccc13)N=C1CNCCN12 [Compound A1] | higher | 30 | 4190 ± 575 | 3790 ± 547 | 0.463 ± 0.063 | 57.2 ± 6.24 | 9200 ± 336 | 8548 ± 240 | 29.7 ± 3.2 | 0.523 ± 0.046 | 93 ± 12 | 3.62 ± 0.37 | 90.5 | AUC(0-inf) [1, 3]: 4280 ± 317 ng·h/mL; AUC(0-t) [1, 3]: 4250 ± 304 ng·h/mL; clearance [1, 3]: 19.5 ± 1.4 mL/min/kg; half-life [1, 3]: 91.8 ± 9.6 min; Vd [1, 3]: 1.11 ± 0.11 L/kg; bioavailability ([1]; in vivo): 67.5% and 67.1%; AUC(0-inf) [1, 4]: 5740 ± 841 ng·h/mL; AUC(0-t) [1, 4]: 5710 ± 802 ng·h/mL; Cmax [1, 4]: 3120 ± 173 ng/mL; half-life [1, 4]: 80.4 ± 7.2 min
2 | NC(=O)c1cccc(N)c1 [Compound 3-AB, reference compound] |  |  |  |  |  |  |  |  |  |  |  |  |  | inhibition at 1000 µM ([2]; PARP1, 1 mM, read-out: inhibition rate): 100%
3 | NC(=O)c1ccc(I)c([N+](=O)[O-])c1 [BSI-201, reference compound] |  |  |  |  |  |  |  |  |  |  |  |  |  | inhibition at 1 µM ([2]; PARP1, 1 μM, read-out: inhibition rate): 22.4%
4 | CN1CCN2C(=Nc3cccc4c(=O)[nH]nc2c34)C1 [Compound A3] | higher | 15 | 1175 ± 105 | 1145 ± 120 | 1.02 ± 0.034 | 30.4 ± 2.4 | 2658 ± 308 | 2566 ± 474 | 71.3 ± 7.6 | 0.818 ± 0.036 | 64.8 ± 5.64 | 5.22 ± 0.81 | 130 | AUC(0-inf) [1, 7]: 2290 ± 321 ng·h/mL; AUC(0-t) [1, 7]: 2290 ± 323 ng·h/mL; clearance [1, 7]: 38.4 ± 2.5 mL/min/kg; half-life [1, 7]: 43.3 ± 4.92 min; Vd [1, 7]: 1.15 ± 0.07 L/kg; bioavailability ([1]; plasma): 50.5 ± 6.8%; AUC(0-inf) [1, 5]: 2310 ± 309 ng·h/mL; AUC(0-t) [1, 5]: 2340 ± 334 ng·h/mL; Cmax [1, 5]: 1860 ± 251 ng/mL; half-life [1, 5]: 50.9 ± 3.3 min
5 | C=C(C)CCN1CCN2C(=Nc3cccc4c(=O)[nH]nc2c34)C1 [Compound A6] | higher | 30 | 232 ± 17 | 196 ± 27 | 3.64 ± 0.22 | 13.3 ± 1.56 | 284 ± 29 | 269 ± 33 | 626 ± 93 | 1.77 ± 0.28 | 70.2 ± 5.4 | 31.2 ± 4.8 | 39.1 | AUC(0-inf) [1, 7]: 1040 ± 118 ng·h/mL; AUC(0-t) [1, 7]: 1000 ± 92 ng·h/mL; clearance [1, 7]: 83.1 ± 13.3 mL/min/kg; half-life [1, 7]: 11.5 ± 0.72 min; Vd [1, 7]: 1.1 ± 0.15 L/kg; bioavailability ([1]; plasma): 13 ± 2.1%; AUC(0-inf) [1, 5]: 271 ± 43 ng·h/mL; AUC(0-t) [1, 5]: 264 ± 36 ng·h/mL; Cmax [1, 5]: 259 ± 28 ng/mL; half-life [1, 5]: 30.8 ± 2.46 min
6 | CC(C)N1CCN2C(=Nc3cccc4c(=O)[nH]nc2c34)C1 [Compound A4] |  |  |  |  |  |  |  |  |  |  |  |  | 111 | 
7 | CCN1CCN2C(=Nc3cccc4c(=O)[nH]nc2c34)C1 [Compound A2] |  |  |  |  |  |  |  |  |  |  |  |  | 65.7 | 
8 | O=c1[nH]nc2c3c(cccc13)N=C1CN(Cc3ccccc3)CCN12 [Compound A5] |  |  |  |  |  |  |  |  |  |  |  |  | 58.7 | 
